# Assay results taken from paper PMC7796366, “Application of HPLC-DAD for In Vitro Investigation of Acetylcholinesterase Inhibition Activity of Selected Isoquinoline Alkaloids from Sanguinaria canadensis Extracts” (Molecules, 2021).
# “And” between values parts separate entries of the source, which are not always exact repeats. Equal values may be shown once.
# Biological target: T1, acetylcholinesterase (Homo sapiens, UniProt P22303)
# T1 construct: purchased Sigma-Aldrich (St. Louis, MO, USA)
# Assay: biochemical
# Format: biochemical
# Conditions: for IC50: concentration of acetylcholinesterase 0.2 U/mL, HPLC-DAD; for inhibition: single alkaloid standard, addition of 125 µL of 1 mg/mL (250 µg/mL final), acetylcholinesterase 10 U/mL
# Description: For determination of acetylcholinesterase inhibitory activity, HPLC analysis was performed on the same apparatus as determination of alkaloid contents on Polar RP column with mobile phase A containing methanol and 0.0025 M diethylamine, mobile phase B containing acetate buffer at pH 3.8 and 0.0025 M diethylamine, and mobile phase in gradient elution: 0–15 min, 10% A; 15–30 min, 10–70% A; 30–60 min, 70% A. Flow rate was 1 mL/min.
# […] Samples for determination of acetylcholinesterase inhibitory activity were prepared by addition of 50 µL of acetylthiocholine iodide, 50 µL of 5′-dithiobis-(2-nitrobenzoic acid), […], and phosphate buffer at pH 7.8 to obtain 500 µL of final solution. […] All components were mixed and samples were incubated for 15 min at 37 °C. Samples were filtrated by syringe filter (CHROMAFIL Xtra, PVDF-29/25 0.20 µm) and injected into the HPLC system.
# T1 sequence (P22303 32-614, species assumed): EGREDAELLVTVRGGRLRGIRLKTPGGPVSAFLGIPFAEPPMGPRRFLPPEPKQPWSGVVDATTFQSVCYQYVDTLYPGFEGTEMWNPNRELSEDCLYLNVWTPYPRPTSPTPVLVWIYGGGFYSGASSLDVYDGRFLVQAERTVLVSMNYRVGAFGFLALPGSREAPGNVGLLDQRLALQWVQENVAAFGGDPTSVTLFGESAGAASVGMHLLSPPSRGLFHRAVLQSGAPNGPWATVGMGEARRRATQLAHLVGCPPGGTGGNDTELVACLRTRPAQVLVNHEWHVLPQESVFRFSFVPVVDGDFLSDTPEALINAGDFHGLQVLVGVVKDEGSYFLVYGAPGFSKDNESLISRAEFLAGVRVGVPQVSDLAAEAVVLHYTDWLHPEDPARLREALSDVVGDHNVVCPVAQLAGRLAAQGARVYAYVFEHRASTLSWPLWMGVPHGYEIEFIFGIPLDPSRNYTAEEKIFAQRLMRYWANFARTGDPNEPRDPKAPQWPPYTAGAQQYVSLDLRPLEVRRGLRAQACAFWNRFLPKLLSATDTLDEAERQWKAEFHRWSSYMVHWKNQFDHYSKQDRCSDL
SMILES,% inhibition of acetylcholinesterase activity,IC50,inhibition [%]
COc1ccc2cc3[n+](cc2c1OC)CCc1cc2c(cc1-3)OCO2 [Berberine],highest activity,–,–
COc1ccc2c(c[n+](C)c3c4cc5c(cc4ccc23)OCO5)c1OC [Chelerythrine],–,0.718 µM and 0.72 µM,100
C[n+]1cc2c3c(ccc2c2ccc4cc5c(cc4c21)OCO5)OCO3 [Sanguinarine],–,5.57 µM,–
CN1CCc2cc3c(cc2C(=O)Cc2ccc4c(c2C1)OCO4)OCO3 [Protopine],–,65.5 µM,~22
CN1Cc2c(ccc3c2OCO3)[C@@H]2[C@H]1c1cc3c(cc1C[C@@H]2O)OCO3 [Chelidonine],–,27 µM,100
